Results reported in patent publication US8486945B2, “Heterocyclic inhibitors of an Hh-signal cascade, medicinal compositions based thereon and methods for treating diseases caused by the aberrant activity of an Hh-signal system” (priority 2007, dated 2013).
Read-outs that look alike come from different tables or passages of the source.

What was measured:
[1] = tested on: Hh-signalling cascade; assay: Inhibition of SHh-induced alkaline phosphatase in C3H10T1/2 cells (Hh-signalling cascade inhibition); assay type: cell-based; settings: Mus musculus, C3H 10T1/2, half maximal inhibition of SHh (0.3 μg/ml) stimulation of cell alkaline phosphatase
Outline: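 C3H10T1/2 cells preincubated 30 min with compound (screen at 10 μM; IC50 from triplicate dilution series), then stimulated with 0.3 μg/ml recombinant SHh for 3 days at 37 °C. Alkaline phosphatase measured by CSPD luminescence in 0.2% Triton-X100 lysates; IC50 = half-maximal inhibition of SHh-induced activity.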

[2] = target: T1, Smo receptors (Homo sapiens, UniProt Q99835); assay: Displacement of bodipy-cyclopamine from Smo receptors in Smo-HEK cells; assay type: binding; settings: half-maximal displacement of bodipy-cyclopamine
T1 construct: expressed in transfected cells; host or cells: HEK cells (Smo-HEK)
Description: Binding parameters to Smo receptors for some of compounds of the general formulas I-VIII are presented in table 11 as the values of half-maximal displacement of cyclopamine labelled with fluorescent dye (bodipy-cyclopamine). The tests were carried out for Smo-HEK cells, comprising artificially expressed protein Smo.

[3] = Pharmacokinetic investigation in mice (PO and IP); assay type: in vivo, mice of BALB/c line; settings: BALB/c, mouse, plasma; for half-life: read-out: T½
Description: Pharmacokinetic investigations were carried out on mice of BALB/c line. All animals were divided into three groups in a random manner: two experimental groups were used for pharmacokinetic analyses at peroral (PO) and intraperitoneal (IP) ways of substance introduction in various doses, and the control group for getting intact blood plasma.
Blood samples were taken by decapitation of animals before introduction of medicament (control samples), and by decapitation in 5, 15, 30, 60, 120 and 240 minutes after introduction of medicament. Three mice were used for each time interval point.
Analysis of samples comprising compounds of the general formulas I-VIII was carried out by Chromato-Mass-Spectrometry method. The data were analysed by means of software package WinNonLin (Pharsight, CIIIA).
Oral bioavailability % F of compounds of the general formulas I-VIII was calculated on the basis of experimental results according to the following equation: % F=[AUC0→t,(PO)/AUC0→t,(IP)]×100%.

[4] = Maximum tolerated dose, intraperitoneal once daily for 5 days; settings: mouse, in vivo, ip, male SHK mice
Description: Maximum tolerated dose of compounds was determined in tests on male mice of SHK line by intraperitoneal once daily introduction of the compounds in doses from 30 to 300 mg/kg during 5 days. 8 Mice were used in each group. Weight of mice and also animals' mortality were registered. […] According to the classification of chemical compounds toxicity the investigated compounds may be referred to low-toxic substances.

[5] = Pharmacokinetic investigation in mice (PO and IP); assay type: in vivo, mice of BALB/c line; settings: BALB/c, mouse, plasma, read-out: % F (PO/IV)
[6] = tested on: transcription factor Gli1; assay: Suppression of transcription factor Gli1 induction in Panc1 cell culture; assay type: cell-based, human; settings: 20 mkM, 72 hours, Panc1 cells
Description: Examples of suppression of the transcription factor Gli1 induction in human's tumor cell culture Panc1 by compounds of the general formulas I-VIII are presented in FIG. 2. […] This effect could be enhanced at combined action of the tested compound and kinas inhibitor (oncolitic Iressa). For caning out the experiments the tumour cell culture Panc1 was cultivated for 72 hours in the presence of 20 mkM of tested compounds.
Measurements of expression level Gli1 were carried out by determination of HGli mRNA amount according to the method [Lauth M., Bergstrom A., Shimokawa T., Toftgard R. Inhibition of GLI-mediated transcription and tumor cell growth by small-molecule antagonists. PNAS. 2007, 104(20): 8455-8460].

T1 sequence (Q99835 28-787): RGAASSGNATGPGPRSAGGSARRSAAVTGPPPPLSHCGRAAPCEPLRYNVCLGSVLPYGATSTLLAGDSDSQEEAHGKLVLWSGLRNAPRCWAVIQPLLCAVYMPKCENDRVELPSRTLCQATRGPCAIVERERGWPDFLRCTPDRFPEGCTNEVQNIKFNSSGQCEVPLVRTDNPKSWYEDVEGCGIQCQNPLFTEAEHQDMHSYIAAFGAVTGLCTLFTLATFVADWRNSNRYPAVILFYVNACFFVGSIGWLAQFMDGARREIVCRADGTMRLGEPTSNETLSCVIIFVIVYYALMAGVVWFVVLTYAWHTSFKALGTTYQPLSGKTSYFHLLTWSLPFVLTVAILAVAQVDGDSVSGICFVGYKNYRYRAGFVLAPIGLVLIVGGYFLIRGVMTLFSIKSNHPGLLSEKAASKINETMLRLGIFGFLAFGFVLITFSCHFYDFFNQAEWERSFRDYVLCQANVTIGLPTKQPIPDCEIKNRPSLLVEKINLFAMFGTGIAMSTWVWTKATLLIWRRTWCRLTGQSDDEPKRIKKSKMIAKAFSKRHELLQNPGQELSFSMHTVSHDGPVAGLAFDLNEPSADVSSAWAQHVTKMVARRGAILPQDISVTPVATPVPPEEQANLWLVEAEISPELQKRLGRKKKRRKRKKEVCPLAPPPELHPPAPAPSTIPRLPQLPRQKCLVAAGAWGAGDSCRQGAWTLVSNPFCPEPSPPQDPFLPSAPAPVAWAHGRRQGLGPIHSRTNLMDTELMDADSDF

Row | IC50 [1] [nM] | melting point [°C] | SMILES | MTD at 5 days [4] [mg/kg] | bioavailability [5] [%] | further results
1 | < 500 | 257 to 259 | Cc1nn(CC(=O)N2CCN(c3ccc(F)cc3)CC2)c(=O)c2nn(-c3ccccc3)c(C)c12 [I-1006, 2-Phenyl-3,4-dimethyl-6-{2-[4-(4-fluorophenyl)piperazin-1-yl]-2-oxoethyl}-2,6-dihydro-7H-pyrazolo[3,4-d]pyridazin-7-one] |  |  | 
2 | < 500 | 152 to 154 | Cc1nn(C(C)C(=O)N2CCN(Cc3ccccc3)CC2)c(=O)c2nn(-c3ccccc3)c(C)c12 (stereo not shown) [I-1012, 2-Phenyl-3,4-dimethyl-6-{1-methyl-2-[4-benzylpiperazin-1-yl]-2-oxoethyl}-2,6-dihydro-7H-pyrazolo[3,4-d]pyridazin-7-one] |  |  | 
3 | < 500 | 252 to 254 | Cc1nn(CC(=O)N2CCN(c3ccccc3)CC2)c(=O)c2nn(-c3ccccc3)c(C)c12 [I-1003, 2-Phenyl-3,4-dimethyl-6-{2-[4-phenylpiperazin-1-yl]-2-oxoethyl}-2,6-dihydro-7H-pyrazolo[3,4-c]pyridazin-7-one] |  |  | 
4 | < 500 | 232 to 234 | Cc1ccc(C)c(N2CCN(C(=O)Cn3nc(C)c4c(C)n(-c5ccccc5)nc4c3=O)CC2)c1 [I-1005, 2-Phenyl-3,4-dimethyl-6-{2-[4-(2,5-dimethylphenyl)piperazin-1-yl]-2-oxoethyl}-2,6-dihydro-7H-pyrazolo[3,4-d]pyridazin-7-one] |  |  | 
5 | < 500 | 252 to 255 | Cc1ccc(S(=O)(=O)N2CCCc3cc(C(=O)Nc4c(C)cc(C)cc4C)ccc32)cc1 [VII-1001, 1-Tosyl-1,2,3,4-tetrahydroquinoline-6-carboxylic acid (2,4,6-mesityl)amide] |  |  | Suppression of Gli1 expression (HGli mRNA) [6]: block effectively Hh-signalling cascade
6 |  |  | CN1CCN(C(=O)C2CCN(C(=O)c3cc4sccc4n3Cc3ccc(Cl)cc3)CC2)CC1 [V-1017, [4-(4-Chlorobenzyl)-4H-thieno[3,2-b]pyrrol-5-yl][4-(4-methylpiperazine-1-carbonyl)-piperidin-1-yl]methanone] | > 200 | 63 | IC50 [2]: 40 nM; Cmax ([3]; IP, 5 mg/Kg): 289 ng/mL; half-life ([3]; IP, 5 mg/Kg): 1.13 h; Cmax ([3]; PO, 20 mg/Kg): 758 ng/mL; half-life ([3]; PO, 20 mg/Kg): 2.28 h
7 | < 500 | 132 to 135 | Cc1nn(C(C)C(=O)N2CCN(C3CCCCC3)CC2)c(=O)c2nn(-c3ccccc3)c(C)c12 (stereo not shown) [I-1010, 2-Phenyl-3,4-dimethyl-6-{1-methyl-2-[4-cyclohexylpiperazin-1-yl]-2-oxoethyl}-2,6-dihydro-7H-pyrazolo[3,4-d]pyridazin-7-one] |  |  | 

Row | SMILES | IC50 [1] [nM] | melting point [°C] | MTD at 5 days [4] [mg/kg] | bioavailability [5] [%] | further results
8 | O=C(c1cc2sccc2n1Cc1ccc(Cl)cc1)N1CCC(C(=O)N2CCCCCC2)CC1 [V-1043, 1-[4-(4-Chlorobenzyl)-4H-thieno[3,2-b]pyrrole-5-carbonyl]piperidine-4-carboxylic acid hexamethylene amide] | < 5000 |  | > 200 | 3 | IC50 [2]: 69 nM; Cmax ([3]; IP, 5 mg/Kg): 167 ng/mL; half-life ([3]; IP, 5 mg/Kg): 1.07 h; Cmax ([3]; PO, 5 mg/Kg): 71 ng/mL
9 | COc1cccc(N2CCN(C(=O)Cn3nc(C)c4c(C)n(-c5ccccc5)nc4c3=O)CC2)c1 [I-1001, 2-Phenyl-3,4-dimethyl-6-{2-[4-(3-methoxyphenyl)piperazin-1-yl]-2-oxoethyl}-2,6-dihydro-7H-pyrazolo[3,4-d]pyridazin-7-one] | < 500 |  | > 200 | 35 | half-life ([3]; PO, 5 mg/Kg): 2.08 h; Cmax ([3]; PO, 20 mg/Kg): 4460 ng/mL; Suppression of Gli1 expression (HGli mRNA) [6]: block effectively Hh-signalling cascade
10 | CN1CCc2c(sc(NC(=O)C3CCCCC3)c2-c2nc3ccccc3s2)C1.Cl [VIII-1001, Cyclohexanecarboxylic acid (3-benzo[d]thiazol-2-yl-6-methyl-4,5,6,7-tetrahydrothieno[2,3-c]pyridin-2-yl)amide] | < 500 |  | > 100 |  | Cmax ([3]; IP, 100 mg/Kg): 45 ng/mL; half-life ([3]; IP, 100 mg/Kg): 4.9 h
